Experimental data published in paper PMC12564265, “Navigating the Deep Eutectic Solvent Landscape: Experimental and Machine Learning Solubility Explorations of Syringic, p-Coumaric, and Caffeic Acids” (International Journal of Molecular Sciences, 2025).
“And” between values parts separate entries of the source, which are not always exact repeats. Equal values may be shown once.

How the values were obtained:
[1] = Shake-flask solubility with spectrophotometric measurement in neat deep eutectic solvents; format: physicochemical
Experimental: (§1) In order to determine the solubility of the three studied phenolic acids in deep eutectic solvents, a very well-established shake-flask method coupled with spectrophotometric measurements was utilized. The initial procedure involved the preparation of various DESs, which was conducted by mixing their HBA and HBD counterparts in a glass vessel and heating the composition until the formation of a transparent, uniform liquid. […] For additional measurements, the DESs were mixed with water in varying proportions, creating aqueous DES systems. Saturated solutions of CAF, SYR, and COU were obtained by adding excess amounts of these compounds to test tubes containing either a neat deep eutectic solvent or its aqueous solution. Such samples were placed in the Orbital Shaker Incubator ES-20/60 from Biosan (Riga, Latvia) and heated for 24 h at 25 °C, 30 °C, 35 °C, and 40 °C (±0.1 °C) with simultaneous mixing at 60 rpm. Before measurements, the samples were filtered using a PTFE syringe filter from Qpore (Dallas, TX, USA) with a 0.22 μm pore size. In order to avoid possible precipitation of the saturated solutions at decreased temperatures, the test tubes, syringes, pipette tips, and filters were kept at a temperature identical to that of the samples. The spectrophotometric measurements required the preparation of calibration curves for the three APIs. This involved the preparation of a stock solution of each compound in methanol, which was later successfully diluted, and the obtained solutions of varying concentrations were measured using an A360 spectrophotometer from AOE Instruments (Shanghai, China). The wavelength range was set to 200-500 nm, and the resolution was 1 nm. The analytical wavelengths were determined to be 324 nm for caffeic acid, 273 nm for syringic acid, and 308 nm for p-coumaric acid. The final regression equations, obtained after averaging three distinct sets of measurements, are collected in Table 2 together with determination coefficients and limits of detection (LOD) and quantification (LOQ) for the calibration curves. The measurements of the samples were conducted with the same spectrophotometer and identical settings. Methanol was used for the dilution of the samples so that they could remain within the linearity range of the method. Complete spectra of the samples were recorded, but for the solubility determination, the absorbance values at a specific analytical wavelength were considered. These values were combined with the corresponding regression equations of the calibration curves and served for the calculation of the concentration of the three phenolic acids in the studied samples. The densities of such samples were also measured, and for this task 1 mL of each sample was weighed to a precision of 0.1 mg using an AS 110 R2.PLUS analytical balance from […] (Radom, Poland). The obtained densities enabled the calculation of mole fractions of CAF, SYR, and COU dissolved in the studied DESs. For each considered system, three distinct measurements were conducted, and the results were averaged.

[2] = Shake-flask solubility with spectrophotometric measurement in aqueous DES mixtures; format: physicochemical; conditions: Bet – TEG 1:2 + water
Experimental: as §1

## O=C(O)C=Cc1ccc(O)c(O)c1 [caffeic acid, 3,4-dihydroxycinnamic acid]
[1]; neat DES Bet - DEG, HBA:HBD molar ratio 1:1, 25 °C
  Mole fraction solubility: 0.0497±0.0004 mole fraction
[1]; neat DES Bet - DEG, HBA:HBD molar ratio 1:2, 25 °C
  Mole fraction solubility: 0.0576±0.0005 mole fraction
[1]; neat DES Bet - DEG, HBA:HBD molar ratio 1:4, 25 °C
  Mole fraction solubility: 0.0537±0.0004 mole fraction
[1]; neat DES Bet - ETG, HBA:HBD molar ratio 1:1, 25 °C
  Mole fraction solubility: 0.0411±0.0004 mole fraction
[1]; neat DES Bet - ETG, HBA:HBD molar ratio 1:2, 25 °C
  Mole fraction solubility: 0.0458±0.0004 mole fraction
[1]; neat DES Bet - GLY, HBA:HBD molar ratio 1:1, 25 °C
  Mole fraction solubility: 0.0561±0.0004 mole fraction
[1]; neat DES Bet - GLY, HBA:HBD molar ratio 1:2, 25 °C
  Mole fraction solubility: 0.0622±0.0006 mole fraction
[1]; neat DES Bet - GLY, HBA:HBD molar ratio 1:4, 25 °C
  Mole fraction solubility: 0.0573±0.0002 mole fraction
[1]; neat DES Bet - TEG, HBA:HBD molar ratio 1:1, 25 °C
  Mole fraction solubility: 0.0655±0.0012 mole fraction
[1]; neat DES Bet - TEG, HBA:HBD molar ratio 1:2, 25 °C
  Mole fraction solubility: 0.0755±0.0010 mole fraction
[1]; neat DES Bet - TEG, HBA:HBD molar ratio 1:2, 25 °C, listed as Caffeic acid
  Mole fraction solubility: 0.0755 mole fraction
[1]; neat DES Bet - TEG, HBA:HBD molar ratio 1:4, 25 °C
  Mole fraction solubility: 0.0716±0.0007 mole fraction
[1]; neat DES ChCl - DEG, HBA:HBD molar ratio 1:1, 25 °C
  Mole fraction solubility: 0.0584±0.0003 mole fraction
[1]; neat DES ChCl - DEG, HBA:HBD molar ratio 1:2, 25 °C
  Mole fraction solubility: 0.0664±0.0005 mole fraction
[1]; neat DES ChCl - ETG, HBA:HBD molar ratio 1:1, 25 °C
  Mole fraction solubility: 0.0435±0.0004 mole fraction
[1]; neat DES ChCl - ETG, HBA:HBD molar ratio 1:2, 25 °C
  Mole fraction solubility: 0.0494±0.0003 mole fraction
[1]; neat DES ChCl - ETG, HBA:HBD molar ratio 1:4, 25 °C
  Mole fraction solubility: 0.0471±0.0003 mole fraction
[1]; neat DES ChCl - TEG, HBA:HBD molar ratio 1:2, 25 °C
  Mole fraction solubility: 0.0835 mole fraction
[2]; x*DES 0.1, 25°C
  Mole fraction solubility: 0.0077±0.0001 mole fraction
[2]; x*DES 0.1, 30°C
  Mole fraction solubility: 0.0087±0.0001 mole fraction
[2]; x*DES 0.1, 35°C
  Mole fraction solubility: 0.0101±0.0001 mole fraction
[2]; x*DES 0.1, 40°C
  Mole fraction solubility: 0.0121±0.0001 mole fraction
[2]; x*DES 0.2, 25°C
  Mole fraction solubility: 0.0155±0.0001 mole fraction
[2]; x*DES 0.2, 30°C
  Mole fraction solubility: 0.0195±0.0002 mole fraction
[2]; x*DES 0.2, 35°C
  Mole fraction solubility: 0.0203±0.0002 mole fraction
[2]; x*DES 0.2, 40°C
  Mole fraction solubility: 0.0243±0.0003 mole fraction
[2]; x*DES 0.3, 25°C
  Mole fraction solubility: 0.0243±0.0002 mole fraction
[2]; x*DES 0.3, 30°C
  Mole fraction solubility: 0.0271±0.0002 mole fraction
[2]; x*DES 0.3, 35°C
  Mole fraction solubility: 0.0318±0.0002 mole fraction
[2]; x*DES 0.3, 40°C
  Mole fraction solubility: 0.0377±0.0003 mole fraction
[2]; x*DES 0.4, 25°C
  Mole fraction solubility: 0.0343±0.0002 mole fraction
[2]; x*DES 0.4, 30°C
  Mole fraction solubility: 0.0379±0.0001 mole fraction
[2]; x*DES 0.4, 35°C
  Mole fraction solubility: 0.0450±0.0002 mole fraction
[2]; x*DES 0.4, 40°C
  Mole fraction solubility: 0.0538±0.0003 mole fraction
[2]; x*DES 0.5, 25°C
  Mole fraction solubility: 0.0432±0.0002 mole fraction
[2]; x*DES 0.5, 30°C
  Mole fraction solubility: 0.0476±0.0003 mole fraction
[2]; x*DES 0.5, 35°C
  Mole fraction solubility: 0.0565±0.0003 mole fraction
[2]; x*DES 0.5, 40°C
  Mole fraction solubility: 0.0690±0.0009 mole fraction
[2]; x*DES 0.6, 25°C
  Mole fraction solubility: 0.0543±0.0003 mole fraction
[2]; x*DES 0.6, 30°C
  Mole fraction solubility: 0.0601±0.0005 mole fraction
[2]; x*DES 0.6, 35°C
  Mole fraction solubility: 0.0703±0.0005 mole fraction
[2]; x*DES 0.6, 40°C
  Mole fraction solubility: 0.0870±0.0009 mole fraction
[2]; x*DES 0.7, 25°C
  Mole fraction solubility: 0.0659±0.0007 mole fraction
[2]; x*DES 0.7, 30°C
  Mole fraction solubility: 0.0737±0.0006 mole fraction
[2]; x*DES 0.7, 35°C
  Mole fraction solubility: 0.0862±0.0007 mole fraction
[2]; x*DES 0.7, 40°C
  Mole fraction solubility: 0.1046±0.0008 mole fraction
[2]; x*DES 0.8, 25°C
  Mole fraction solubility: 0.0797±0.0006 mole fraction
[2]; x*DES 0.8, 30°C
  Mole fraction solubility: 0.0901±0.0008 mole fraction
[2]; x*DES 0.8, 35°C
  Mole fraction solubility: 0.1042±0.0013 mole fraction
[2]; x*DES 0.8, 40°C
  Mole fraction solubility: 0.1253±0.0010 mole fraction
[2]; x*DES 0.9, 25°C
  Mole fraction solubility: 0.0823 mole fraction and 0.0823±0.0013 mole fraction
